Measured values reported in ChEMBL document CHEMBL1143099, “Synthesis and SAR of potent and orally bioavailable tert-butylpyrrolidine archetype derived melanocortin subtype-4 receptor modulators” (Bioorg Med Chem Lett, 2008).

Key:
Melanocortin receptor 4 [1] = target: T1, Melanocortin receptor 4 (Homo sapiens, UniProt P32245); assay: Displacement of [125I]NDP-alpha-MSH from human MC4R expressed in CHO cells; type: cell-based
Melanocortin receptor 4 [2] = target: T1, Melanocortin receptor 4; assay: Agonist activity at human MC4R expressed in CHO cells assessed as cAMP release; type: functional, cell-based
Melanocortin receptor 4 [3] = target: T1, Melanocortin receptor 4; assay: Agonist activity at human MC4R expressed in CHO cells assessed as cAMP release relative to alpha-MSH; type: functional, cell-based
Melanocortin receptor 4 [4] = target: T1, Melanocortin receptor 4; assay: Agonist activity at human MC4R expressed in CHO cells assessed as cAMP release at 10 uM relative to alpha-MSH; type: functional, cell-based
[5] = Agonist activity at human MC1bR expressed in CHO cells assessed as cAMP release; type: functional, cell-based
Melanocortin receptor 4 [6] = target: T2, Melanocortin receptor 4 (Rattus norvegicus, UniProt P70596); assay: Agonist activity at rat MC4R expressed in CHO cells assessed as cAMP release; type: functional, cell-based
Melanocortin receptor 5 [7] = target: T3, Melanocortin receptor 5 (Homo sapiens, UniProt P33032); assay: Agonist activity at human MC5R expressed in CHO cells assessed as cAMP release at 10 uM relative to alpha-MSH; type: functional, cell-based
Melanocortin receptor 3 [8] = target: T4, Melanocortin receptor 3 (Homo sapiens, UniProt P41968); assay: Binding affinity to human MC3R
[9] = Agonist activity at human MC1bR expressed in CHO cells assessed as cAMP release at 10 uM relative to alpha-MSH; type: functional
[10] = Oral bioavailability in Sprague-Dawley rat at 4 mg/kg; type: ADME, organism-based; settings: in vivo
Melanocortin receptor 5 [11] = target: T3, Melanocortin receptor 5; assay: Agonist activity at human MC5R expressed in CHO cells assesses as cAMP release; type: functional, cell-based
Melanocortin receptor 5 [12] = target: T3, Melanocortin receptor 5; assay: Binding affinity to human MC5R
Melanocortin receptor 3 [13] = target: T4, Melanocortin receptor 3; assay: Agonist activity at human MC3R expressed in CHO cells assessed as cAMP release; type: functional, cell-based
[14] = target: Melanocortin receptor 4 (Rattus norvegicus) (UniProt P70596); assay: Agonist activity at rat MC4R expressed in CHO cells assessed as cAMP release at 10 uM relative to alpha-MSH; type: functional, cell-based
Melanocortin receptor 3 [15] = target: T4, Melanocortin receptor 3; assay: Agonist activity at human MC3R expressed in CHO cells assessed as cAMP release at 10 uM relative to alpha-MSH; type: functional, cell-based
[16] = Binding affinity to human MC1bR
[17] = Plasma clearance in rat at 4 mg/kg, po; type: ADME, organism-based; parameters: dose 4 mg/kg, route oral
Melanocortin receptor 4 [18] = target: T2, Melanocortin receptor 4; assay: Binding affinity to rat MC4R
Homo sapiens [19] = organism: Homo sapiens; assay: Selectivity for human MC4R over human MC3R
Homo sapiens [20] = organism: Homo sapiens; assay: Selectivity for human MC4R over human MC1bR

T4 sequence (P41968 whole entry): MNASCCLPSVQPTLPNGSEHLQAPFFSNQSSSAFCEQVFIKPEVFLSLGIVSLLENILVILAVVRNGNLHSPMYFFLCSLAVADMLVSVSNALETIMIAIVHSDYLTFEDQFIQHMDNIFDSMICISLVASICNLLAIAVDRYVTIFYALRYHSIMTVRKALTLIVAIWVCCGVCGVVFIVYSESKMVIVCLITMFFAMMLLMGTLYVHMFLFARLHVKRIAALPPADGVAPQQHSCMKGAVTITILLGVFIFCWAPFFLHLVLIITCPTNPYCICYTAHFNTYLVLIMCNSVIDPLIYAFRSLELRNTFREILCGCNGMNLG
T1 sequence (P32245 whole entry): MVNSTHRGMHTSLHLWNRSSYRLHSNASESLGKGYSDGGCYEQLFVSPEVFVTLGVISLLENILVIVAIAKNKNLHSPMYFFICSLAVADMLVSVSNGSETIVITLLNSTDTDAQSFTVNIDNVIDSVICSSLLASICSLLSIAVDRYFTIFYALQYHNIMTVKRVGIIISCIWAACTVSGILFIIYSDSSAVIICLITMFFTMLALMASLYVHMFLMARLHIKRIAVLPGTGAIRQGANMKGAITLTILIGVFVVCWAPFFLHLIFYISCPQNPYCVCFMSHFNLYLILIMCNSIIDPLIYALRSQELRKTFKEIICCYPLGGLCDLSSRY
T3 sequence (P33032 whole entry): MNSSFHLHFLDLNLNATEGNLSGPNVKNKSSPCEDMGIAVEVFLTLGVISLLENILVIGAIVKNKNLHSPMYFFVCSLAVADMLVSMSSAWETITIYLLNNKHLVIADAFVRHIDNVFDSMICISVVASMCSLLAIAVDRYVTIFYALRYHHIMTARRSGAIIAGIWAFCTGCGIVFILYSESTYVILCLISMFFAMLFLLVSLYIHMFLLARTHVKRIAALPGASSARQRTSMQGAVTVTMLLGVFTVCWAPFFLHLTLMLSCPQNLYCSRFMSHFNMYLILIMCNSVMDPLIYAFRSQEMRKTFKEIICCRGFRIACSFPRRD
T2 sequence (P70596 whole entry): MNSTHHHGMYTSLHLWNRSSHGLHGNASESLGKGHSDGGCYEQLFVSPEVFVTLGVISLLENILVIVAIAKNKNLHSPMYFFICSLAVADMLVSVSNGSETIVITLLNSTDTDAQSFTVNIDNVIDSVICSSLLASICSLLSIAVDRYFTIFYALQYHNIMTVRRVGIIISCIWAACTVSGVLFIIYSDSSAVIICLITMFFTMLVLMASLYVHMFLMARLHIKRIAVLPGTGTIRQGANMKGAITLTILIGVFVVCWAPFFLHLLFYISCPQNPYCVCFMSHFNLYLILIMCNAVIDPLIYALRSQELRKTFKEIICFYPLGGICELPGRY
Chain of Melanocortin receptor 4 (Rattus norvegicus) (P70596 whole entry): as above

IC50 (Melanocortin receptor 4 [1]) | EC50 (Melanocortin receptor 4 [2]) | %max (Melanocortin receptor 4 [3]) | Activity (Melanocortin receptor 5 [7]) | IC50 (Melanocortin receptor 3 [8]) | bioavailability [10] | EC50 (Melanocortin receptor 5 [11]) | IC50 (Melanocortin receptor 5 [12]) | Activity (Melanocortin receptor 3 [15]) | IC50 [16] | CL/F [17] | Compound | Activity [9] | also measured
28.1 nM | 67.2 nM | 90% |  |  |  |  |  |  |  |  | CC[C@H](NC(C)=O)c1cc(Cl)ccc1C1CCN(C(=O)[C@@H]2CN(C(C)(C)C)C[C@H]2c2ccc(C(F)(F)F)cc2)CC1 |  | 
70 nM | 17.9 nM | 108% |  |  |  |  |  |  |  |  | CC[C@H](NC(C)=O)c1cc(Cl)ccc1C1CCN(C(=O)[C@@H]2CN(C(C)(C)C)C[C@H]2c2ccc(F)cc2F)CC1 |  | 
640 nM | 565 nM | 83% |  |  |  |  |  |  |  |  | CC[C@H](NC(C)=O)c1cc(Cl)ccc1C1CCN(C(=O)[C@H]2CN(C(C)(C)C)C[C@@H]2c2ccc(F)cc2F)CC1 |  | 
82.2 nM |  |  |  |  |  |  |  |  |  |  | CC[C@H](NC(C)=O)c1cc(Cl)ccc1C1CCN(C(=O)[C@H]2CN(C(C)(C)C)C[C@@H]2c2ccc(F)cc2Cl)CC1 |  | Activity (Melanocortin receptor 4 [4]): 10%
13.2 nM | 111 nM | 45% |  |  |  |  |  |  |  |  | CC[C@H](NC(C)=O)c1cc(Cl)ccc1C1CCN(C(=O)[C@H]2CN(C(C)(C)C)C[C@@H]2c2ccc(Cl)cc2F)CC1 |  | 
128 nM | 130 nM | 93% |  |  |  |  |  |  |  |  | CC[C@H](NC(C)=O)c1cc(Cl)ccc1C1CCN(C(=O)[C@@H]2CN(C(C)(C)C)C[C@H]2c2cc(F)c(F)cc2F)CC1 |  | 
6.2 nM | 2.8 nM | 97% | 98% | 1490 nM | 24.3% | 372 nM | 129 nM | 92% | 1340 nM | 11.4 mL/min/kg | CC[C@H](NC(C)=O)c1cc(Cl)ccc1C1CCN(C(=O)[C@@H]2CN(C(C)(C)C)C[C@H]2c2ccc(Cl)cc2F)CC1 | 57% | EC50 [5]: 905 nM; EC50 (Melanocortin receptor 4 [6]): 0.9 nM; EC50 (Melanocortin receptor 3 [13]): 250 nM; Activity [14]: 106%
4.1 nM | 13.4 nM | 33% | 30% | 2950 nM | 34.3% | 455 nM | 280 nM | 38% | 174000 nM | 9.12 mL/min/kg | CC[C@H](NC(C)=O)c1cc(Cl)ccc1C1CCN(C(=O)[C@H]2CN(C(C)(C)C)C[C@@H]2c2ccc(Br)cc2F)CC1 | 33% | EC50 [5]: 1060 nM; EC50 (Melanocortin receptor 4 [6]): 10.3 nM; IC50 (Melanocortin receptor 4 [18]): 1.5 nM; EC50 (Melanocortin receptor 3 [13]): 917 nM; Activity [14]: 44%
76.2 nM | 120 nM | 47% | 35% | 12200 nM | 15% | 1230 nM | 675 nM | 16% | 6590 nM | 37.6 mL/min/kg | CC[C@H](NC(C)=O)c1cc(Cl)ccc1C1CCN(C(=O)[C@@H]2CN(C(C)(C)C)C[C@H]2c2ccc3ccccc3c2)CC1 | 10% | 
22.7 nM | 88.8 nM | 99% |  |  |  |  |  |  |  |  | CC[C@H](NC(C)=O)c1cc(Cl)ccc1C1CCN(C(=O)[C@@H]2CN(C(C)(C)C)C[C@H]2c2ccc(C(F)(F)F)cc2F)CC1 |  | 
17.9 nM | 156 nM | 48% |  |  |  |  |  |  |  |  | CC[C@H](NC(C)=O)c1cc(Cl)ccc1C1CCN(C(=O)[C@@H]2CN(C(C)(C)C)C[C@H]2c2ccc(Cl)cc2Cl)CC1 |  | 
7.8 nM |  |  | 11% | 3780 nM | 28% |  | 450 nM | 8% | 16400 nM | 5.6 mL/min/kg | CC[C@H](NC(C)=O)c1cc(Cl)ccc1C1CCN(C(=O)[C@H]2CN(C(C)(C)C)C[C@@H]2c2ccc(C(F)(F)F)cc2)CC1 | 5% | IC50 (Melanocortin receptor 4 [18]): 1 nM; Activity (Melanocortin receptor 4 [4]): 1%; Activity [14]: 15%
101 nM | 3700 nM | 50% |  |  |  |  |  |  |  |  | CC[C@H](NC(C)=O)c1cc(Cl)ccc1C1CCN(C(=O)[C@H]2CN(C(C)(C)C)C[C@@H]2c2cc(F)c(F)cc2F)CC1 |  | 
37.2 nM | 245 nM | 34% |  |  |  |  |  |  |  |  | CC[C@H](NC(C)=O)c1cc(Cl)ccc1C1CCN(C(=O)[C@H]2CN(C(C)(C)C)C[C@@H]2c2ccc(OC)cc2F)CC1 |  | 
528 nM | 1920 nM | 57% |  |  |  |  |  |  |  |  | CC[C@H](NC(C)=O)c1cc(Cl)ccc1C1CCN(C(=O)[C@H]2CN(C(C)(C)C)C[C@@H]2c2ccc3ccccc3c2)CC1 |  | 
3.3 nM |  |  | 10% | 4290 nM | 30.3% | 1600 nM | 245 nM | 5% | 20000 nM | 11.4 mL/min/kg | CC[C@H](NC(C)=O)c1cc(Cl)ccc1C1CCN(C(=O)[C@H]2CN(C(C)(C)C)C[C@@H]2c2ccc(Cl)cc2Cl)CC1 | 3% | Ratio IC50 (Homo sapiens [19]): > 1000; IC50 (Melanocortin receptor 4 [18]): 0.5 nM; Activity (Melanocortin receptor 4 [4]): 1%; Activity [14]: 6%; Ratio IC50 (Homo sapiens [20]): > 6000
11.2 nM | 4.6 nM | 100% | 101% | 2960 nM | 3.8% | 167 nM | 205 nM | 91% | 312 nM | 66.4 mL/min/kg | CC[C@H](NC(C)=O)c1cc(Cl)ccc1C1CCN(C(=O)[C@@H]2CN(C(C)(C)C)C[C@H]2c2ccc(OC)cc2F)CC1 |  | EC50 (Melanocortin receptor 3 [13]): 157 nM
4 nM | 2.1 nM | 100% | 88% | 1050 nM | 24.7% | 102 nM | 65.3 nM | 88% | 695 nM | 7.3 mL/min/kg | CC[C@H](NC(C)=O)c1cc(Cl)ccc1C1CCN(C(=O)[C@@H]2CN(C(C)(C)C)C[C@H]2c2ccc(Br)cc2F)CC1 | 57% | EC50 [5]: 274 nM; EC50 (Melanocortin receptor 4 [6]): 0.5 nM; IC50 (Melanocortin receptor 4 [18]): 1.7 nM; EC50 (Melanocortin receptor 3 [13]): 97.4 nM; Activity [14]: 94%
216 nM | 215 nM | 84% |  |  |  |  |  |  |  |  | CC[C@H](NC(C)=O)c1cc(Cl)ccc1C1CCN(C(=O)[C@@H]2CN(C(C)(C)C)C[C@H]2c2ccc(F)cc2Cl)CC1 |  | 
9.8 nM |  |  |  |  |  |  |  |  |  |  | CC[C@H](NC(C)=O)c1cc(Cl)ccc1C1CCN(C(=O)[C@H]2CN(C(C)(C)C)C[C@@H]2c2ccc(C(F)(F)F)cc2F)CC1 |  | Activity (Melanocortin receptor 4 [4]): 5%
